The values that follow come from US20130051651A1, “QUANTITATIVE IMAGE ANALYSIS FOR WOUND HEALING ASSAY” (PURDUE RESEARCH FOUNDATION, priority 2010, published 2013).

For this assay, the system named is MCF7 cells. Kind of assay: wound healing assay analysed with the quantitative image analysis algorithm. Format: cell-based. From the text:
The wound healing assay, or “scratch” assay, is a traditional method used to study cell proliferation and migration. […] The cultures are then imaged over time using bright field or fluorescence microscopy to monitor the growth and migration of cells into the wound as it is healing.
Illustrative embodiments of the quantitative image analysis algorithm 100 have been tested multiple times and have provided robust and dependable wound healing assay analysis. By way of example, the […] 102 of several wound healing assays were measured at 24 hour time points (up to 96 hours). […] In this experiment, the algorithm took 90 minutes to process five time points for each wound healing assay in a 96 well plate (i.e., a total of 480 bright point images 102 being analyzed). […]
Furthermore, the data produced by the quantitative image analysis algorithm 100 matches traditional wound healing assay data. […]

With neuregulin 2β, the “percentage of wound healing using the wound area calculated by the algorithm” value (MCF7 cells treated with varying doses, different time points, dose response 48 hours after wound creation (FIGS. 3A, 3B)) was “dose-dependent increase in healing”. Besides, the “healing curve (speed of wound healing)” value (MCF7 cells, 4 different doses, treated versus untreated cells over time (FIG. 3A)) is reported as “treated cells healed faster”.
